Source: patent publication US5278142A, “Systemic delivery of polypeptides through the eye” (Orbon Corporation, priority 1992, dated 1994)
“And” between values parts separate entries of the source, which are not always exact repeats. Equal entries are not always repeated.

Legend:
blood glucose = test: Effects of absorption enhancers plus insulin on blood glucose concentrations; assay type: in vivo, New Zealand white rabbits; conditions: for % Change in Blood Glucose Concentration / Blood Glucose Concentration After / Blood Glucose Concentration Before: eye drops 1% insulin plus 1% absorption enhancer (Control: 1% insulin only)
[1] = Blood concentration of TRH, LHRH and glucagon after ocular instillation or i.v. injection (Example 5)
Text: The concentrations of peptides in the blood were expressed in ng/ml.

[2] = Amount of enkephalin-equivalent remaining in eye tissues at the end of 12 hr experiment
[3] = Blood enkephalin-equivalent concentration after ocular instillation or i.v. injection; conditions: enkephalin 50 ug i.v.
[4] = Effects of absorption enhancers on insulin penetration (blood insulin concentration)
[5] = Effects of absorption enhancers on the penetration of insulin into eyeballs; assay type: in vivo, New Zealand white rabbits; conditions: 1% insulin plus enhancer
[6] = 1% enhancer with 1% insulin eye drops

## CC(=O)O[C@H]1C[C@@]2(C)[C@@H](C[C@@H](O)[C@H]3[C@@]4(C)CC[C@@H](O)[C@@H](C)[C@@H]4CC[C@@]32C)/C1=C(\CCC=C(C)C)C(=O)O [Fusidic acid, sodium fusidate]
Blood glucose
  % Change in Blood Glucose Concentration: 43%
  Blood Glucose Concentration After: 51 mg % and 51 ± 2 mg %
  Blood Glucose Concentration Before: 90 mg % and 90 ± 3 mg %

## CC(C)C[C@H](NC(=O)CNC(=O)[C@H](Cc1ccc(O)cc1)NC(=O)[C@H](CO)NC(=O)[C@H](Cc1c[nH]c2ccccc12)NC(=O)[C@H](Cc1cnc[nH]1)NC(=O)[C@@H]1CCC(=O)N1)C(=O)N[C@@H](CCCNC(=N)N)C(=O)N1CCC[C@H]1C(=O)NCC(N)=O [LHRH, luteinizing hormone-releasing hormone]
[1]; rabbit, in vivo
  eye-drop concentration sufficient to reach therapeutic effective blood concentration: 0.005%

## NC(=O)[C@@H]1CCCN1C(=O)[C@H](Cc1cnc[nH]1)NC(=O)[C@@H]1CCC(=O)N1 [TRH, Thyrotrophin-releasing hormone]
[1]; female, New Zealand white, rabbit, in vivo, topical or ocular, 1 % solution (25 ul)
  plateau blood TRH concentration: 26 ng/mL
[1]; rabbit, in vivo
  eye-drop concentration giving a therapeutic blood concentration of TRH: ≥ 0.0025%
  time remained at the plateau: approximately 10 hrs
  time to peak: 60 min

## CC(C)C[C@H](NC(=O)[C@H](Cc1ccccc1)NC(=O)CNC(=O)CNC(=O)[C@@H](N)Cc1ccc(O)cc1)C(=O)O [enkephalin, Leucine-enkephalin (5-L-leucine)]
[2]; Choroid, 5% enkephalin
  Residual enkephalin remaining in tissues: % of instilled: 0.0110 ± 0.008%
[2]; Ciliary-Body, 0.1245% enkephalin
  Residual enkephalin remaining in tissues: % of instilled: 0.0156 ± 0.003%
[2]; Ciliary-Body, 1% enkephalin
  Residual enkephalin remaining in tissues: % of instilled: 0.0108 ± 0.005%
[2]; Ciliary-Body, 5% enkephalin
  Residual enkephalin remaining in tissues: % of instilled: 0.0042 ± 0.002%
[2]; Cornea, 1% enkephalin
  Residual enkephalin remaining in tissues: % of instilled: 0.0601 ± 0.015%
[2]; Cornea, 5% enkephalin
  Residual enkephalin remaining in tissues: % of instilled: 0.0427 ± 0.012%
[2]; Iris, 0.1245% enkephalin
  Residual enkephalin remaining in tissues: % of instilled: 0.0252 ± 0.003%
[2]; Iris, 1% enkephalin
  Residual enkephalin remaining in tissues: % of instilled: 0.0117 ± 0.005%
[2]; Lens, 0.1245% enkephalin
  Residual enkephalin remaining in tissues: % of instilled: 0.0834 ± 0.013%
[2]; Retina, 0.1245% enkephalin
  Residual enkephalin remaining in tissues: % of instilled: 0.0118 ± 0.004%
[2]; Retina, 5% enkephalin
  Residual enkephalin remaining in tissues: % of instilled: 0.0036 ± 0.002%
[2]; Total, 0.1245% enkephalin
  Residual enkephalin remaining in tissues: % of instilled: 0.3019%
[2]; Total, 1% enkephalin
  Residual enkephalin remaining in tissues: % of instilled: 0.1713%
[2]; Total, 5% enkephalin
  Residual enkephalin remaining in tissues: % of instilled: 0.1136%
[3]
  Tx of blood concentration decline: less than 30 min
[3]; in 5 hrs
  lowest point of blood concentration: 22 ng/mL

## polyoxyethylene sorbitan monolaurate [Tween 20]
[4]; [6]
  effect on insulin absorption: only a slight increase in insulin absorption
[4]; eye drops 1% insulin plus 1% absorption enhancer (Control: 1% insulin only), 25 ul
  Insulin peak Concentration: 8.8 ± 0.9 ng/mL
Blood glucose; [6]
  effect on blood glucose: a minute reduction in blood glucose concentration
Blood glucose
  % Change in Blood Glucose Concentration: 14%
  Blood Glucose Concentration After: 77 ± 9 mg %
  Blood Glucose Concentration Before: 90 ± 3 mg %
[5]
  % of insulin taken up by the eyeball: 0.0771%
  Absolute amount of insulin in the eyeball: 192 ng

## polyoxyethylene-9-lauryl ether [BL-9]
Blood glucose
  % Change in Blood Glucose Concentration: 42%
  Blood Glucose Concentration After: 56 mg % and 56 ± 3 mg %
  Blood Glucose Concentration Before: 97 mg % and 97 ± 2 mg %
[5]
  % of insulin taken up by the eyeball: 0.5221%
  Absolute amount of insulin in the eyeball: 1305 ng

## O=C(O)CNC(=O)C(CS)Cc1ccccc1 (racemic) [D,L-Thiorphan, D,L-thiorphan]
[1]; Leu-Leu 4 mM, Bestatin 60 uM, D,L-Thiorphan 0.6 uM
  effect of added peptidase inhibitors on systemic absorption of TRH: did not significantly enhance the systemic absorption of TRH

## C[N+](C)(C)CCCCCCCCCC[N+](C)(C)C [Decamethonium, decamethonium bromide]
Blood glucose
  % Change in Blood Glucose Concentration: 8%
  Blood Glucose Concentration After: 83 ± 2 mg %
  Blood Glucose Concentration Before: 90 ± 3 mg %

## C[C@H](CCC(=O)NCC(=O)O)[C@H]1CC[C@H]2[C@@H]3[C@H](O)C[C@@H]4C[C@H](O)CC[C@]4(C)[C@H]3C[C@H](O)[C@]12C [Glycocholate, sodium glycocholate]
Blood glucose
  % Change in Blood Glucose Concentration: 13%
  Blood Glucose Concentration After: 94 mg % and 94 ± 4 mg %
  Blood Glucose Concentration Before: 108 mg % and 108 ± 7 mg %
[5]
  % of insulin taken up by the eyeball: 0.0804%
  Absolute amount of insulin in the eyeball: 200 ng
